Experimental data from patent publication US10342786B2, “P38 kinase inhibitors reduce DUX4 and downstream gene expression for the treatment of FSHD” (Fulcrum Therapeutics, Inc., priority 2017, dated 2019).

Columns and labels:
Type in all cases: cell-based, human
DUX4-fl mRNA = test: DUX4 / DUX4-fl mRNA expression by qPCR in FSHD myotubes
Procedure: In a 6 well plate, 450 μL Buffer RLT Plus was added. Lysate was homogenized by transfer the lysate to a gDNA Eliminator spin column placed in a 2 mL collection tube (supplied), centrifuged for 30 s at ≥8000×g (≥10,000 rpm) and discarded column while saving the flow-through. Then 250 μL of Ethanol (35% final) was added to the flow-through, and mixed well by pipetting, not centrifuged. Then samples were transferred, including any precipitate that may have formed, to an RNeasy MinElute spin column placed in a 2 mL collection tube (supplied). Then centrifuged for 15 s at ≥8000×g. Flow-through was discarded or collected for Protein precipitation. 700 μL Buffer RW1 to the RNeasy MinElute spin column was added then centrifuge for 15 s at ≥8000×g. and discard the flow-through. DNAse treatment was performed by gently mixing 10 μL DNAseI with 70 μL of Buffer RDD and added directly to the column, incubated at room temperature for 20 min. Then, 700 μL Buffer RW1 (per manufactures specification) to the RNeasy MinElute spin column, centrifuged for 15 s at >8000×g. and the flow-through discarded. 500 μL Buffer RPE was added to the RNeasy MinElute spin column centrifuged for 15 s at ≥8000×g and discarded the flow-through. 500 μL of 80% ethanol was added to the RNeasy MinElute spin column, centrifuged for 2 min at ≥8000×g to wash the spin column membrane and the collection tube was discarded with the flow-through. The RNeasy MinElute spin column was placed in a new 2 mL collection tube (supplied) centrifuged at full speed for 5 min to dry the membrane and the collection tube was discarded with the flow through. RNeasy MinElute spin column was placed in a new 1.5 mL collection tube (supplied). 14 μL RNase-free water was added directly to the center of the spin column membrane, and centrifuged for 1 min at full speed to elute the RNA. You should end up with about 12 μL of eluted RNA.
cDNA preparation. […] 10 seconds then read plate on QuantStudio7 as per manufactures instruction (Thermo). […]

FSHD myotubes = test: Myotube formation / fusion (MHC and DAPI staining); conditions: 10, 100, and 1000 nM; FSHD myotubes
Procedure: On day 0, change to differentiation media. Remove plates from the incubator and aspirate the growth medium, Wash once with PBS, 100 μL for 96-wells and 1 mL for a 6-well plate, Add 100 μL or 2 mL of differentiation medium per well, 96- or 6-well respectively. Add antisense oligonucleotides or drug at the desire concentration and put back in the incubator. Fusion should start within day 1-2. Incubate for 3-4 days.
Briefly, cells were fixed in 4% paraformaldehyde and […] for 10 min at room temperature. Cells were permeabilized with PBST (1×PBS solution with 0.1% Triton X-100) before blocking with 10% Normal Donkey Serum or 3% BSA (NDS) in PBST. […] DUX4 was detected by immunocytochemistry using the E5-5 antibody in differentiated FSHD myotubes. Activated Caspase-3 was detected cell signaling antibody that we're using for ICC, Asp175 (https://www.cellsignal.com/products/primary-antibodies/cleaved-caspase-3-asp175-antibody/9661).
Immortalized FHSD myotubes were differentiated and treated with DMSO vehicle control or FTX-1821 at concentrations of 1 μM, 0.33 μM, 0.11 μM or 0.037 μM. […] The nuclei in myotubes were quantified according to […] staining (FIG. 8B).

[1] = test system: active Caspase-3 in FSHD myotubes; test: Apoptosis by active Caspase-3 in FSHD myotubes; conditions: FSHD1 and FSHD2 lines; vs healthy control line CTRL-FTCE-014
Procedure: Briefly, cells were fixed in 4% paraformaldehyde and […] for 10 min at room temperature. Cells were permeabilized with PBST (1×PBS solution with 0.1% Triton X-100) before blocking with 10% Normal Donkey Serum or 3% BSA (NDS) in PBST. Cells were then incubated with appropriately diluted primary antibodies in PBST with 5% NDS for 1 hours at room temperature or 12 hours at 4° C., washed with PB ST for 3 times at room temperature and then incubated with desired secondary antibodies in TBST with 5% NDS and DAPI to counter stain the nuclei. DUX4 was detected by immunocytochemistry using the E5-5 antibody in differentiated FSHD myotubes. Activated Caspase-3 was detected cell signaling antibody that we're using for ICC, Asp175 (https://www.cellsignal.com/products/primary-antibodies/cleaved-caspase-3-asp175-antibody/9661).
Apoptosis was measured by active Caspase-3 levels in FSHD myotubes in vitro as described in Materials and Methods. Apoptosis was detected in a sporadic manner in a subset of myotubes in culture as shown by the white circles and magnified region in FIG. 9A. Active Caspase-3 signal was quantified in FSHD myotubes that had been treated with FTX-1821 at different concentrations (FIG. 9B). […] No change in active Caspase-3 signal was observed following DMSO treatment.

Molecule | DUX4 expression (DUX4-fl mRNA; 1 μM ASO, FSHD myotubes vs DMSO) | DUX4 expression (DUX4-fl mRNA; different dilutions of the ASO, FSHD myotubes) | DUX4-fl mRNA levels normalized to POLR2A mRNA (DUX4-fl mRNA; 10, 100, and 1000 nM, FSHD myotubes, compared to DMSO) | differentiation into myotubes (FSHD myotubes) | apoptosis (active caspase-3) [1]
FTX-2: DUX4 sequence-directed antisense oligonucleotide purchased from Exiqon, CAGCGTCGGAAGGTGG (SEQ ID NO: 1) (listed as DNA, chemistry not given here) | reduced amounts | dose dependent reduction |  |  | 
Cn1c(=O)c(Oc2ccc(F)cc2F)cc2cnc(NC(CCO)CCO)nc21 [Pamapimod, 6-(2,4-difluorophenoxy)-2-((1,5-dihydroxypentan-3-yl)amino)-8-methylpyrido[2,3-d]pyrimidin-7(8H)-one] |  |  | dose-dependently reduced | without impacting | reduction
